One molecule from ChEMBL document CHEMBL5150076, “Discovery of Novel Orally Bioavailable Triazoles with Potent and Broad-Spectrum Antifungal Activity In Vitro and In Vivo” (J Med Chem, 2022) can be followed below.

The subject of series [1] is Candida albicans. Description: Antifungal activity against Candida albicans SC5314 incubated for 24 hrs by microbroth dilution method. The class given is functional.
Series [2] has as its system Candida albicans. The series can be described thus: Antifungal activity against Candida albicans 12#. The class given is functional.
Series [3] concerns Candida albicans. The series can be described thus: Antifungal activity against Candida albicans 14#. The series is classed as functional.
For a further series, the system named is Candida parapsilosis. Description: Antifungal activity against Candida parapsilosis 700. As to conditions: Lodderomyces parapsilosis. The class given is functional.
Series [4] deals with Pichia kudriavzevii. Description: Antifungal activity against Candida krusei 629. The class given is functional.
Series [5] concerns Pichia kudriavzevii. The series can be described thus: Antifungal activity against Candida krusei 397. The series is classed as functional.
The subject of a further series is Nakaseomyces glabratus. The series can be described thus: Antifungal activity against Candida glabrata ATCC2001. The series is classed as functional.
In the next series the test system is [Candida] auris. The series can be described thus: Antifungal activity against Candida auris 887. The series is classed as functional. As to conditions: Candidozyma auris.
Series [6] concerns Candida albicans. The series can be described thus: Inhibition of biofilm formation in Candida albicans SC5314 at 0.0625 ug/ml relative to control. The series is classed as functional.
Series [7] is described as follows: Induction of drug resistance in Candida albicans SC5314 assessed as increase in MIC after 2 weeks (reference value: 0.008 microg/ml). The series is classed as functional. As to conditions: SC5314, 336 h.
Series [8] in a line: Cmax in Sprague-Dawley rat at 5 mg/kg, po by LC-MS analysis. As to conditions: in vivo. The series is classed as ADME, organism-based. Details: dose 5 mg/kg, route po.
Series [9] is described as follows: Clearance in Sprague-Dawley rat at 2 mg/kg, iv by LC-MS analysis. As to conditions: in vivo.
Series [10] has as its system Candida albicans. The series can be described thus: Antifungal activity against Candida albicans SC5314 infected in ICR mouse assessed as delay in mortality at 0.25 to 0.5 mg/kg, po qd infected with fungus for 2 hrs prior to compound addition for 7 days and measured for 20 days. The class given is functional, organism-based. As to conditions: dose 0.25-0.5 mg/kg, time 20.0 day.

The test system of another series is Cryptococcus neoformans. Description: Antifungal activity against Cryptococcus neoformans H99 infected in ICR mouse assessed as delay in mortality at 0.5 to 5 mg/kg, po qd infected with fungus for 2 hrs prior to compound addition for 7 days and measured for 20 days. The class given is functional, organism-based. As to conditions: dose 0.5-5 mg/kg, time 20.0 day.

Series [11] concerns Aspergillus fumigatus. Description: Antifungal activity against Aspergillus fumigatus 7544 infected in ICR mouse assessed as delay in mortality at 20 to 60 mg/kg, po qd infected with fungus for 2 hrs prior to compound addition for 7 days and measured for 20 days. The series is classed as functional, organism-based. As to conditions: dose 20-60 mg/kg, time 20.0 day.
In series [12] the test system is Aspergillus fumigatus. The series can be described thus: Antifungal activity against Aspergillus fumigatus 7544 infected in ICR mouse assessed as survival rate at 20 mg/kg, po qd infected with fungus for 2 hrs prior to compound addition for 7 days and measured for 20 days. The series is classed as functional. As to conditions: time 20 day.

In brackets after ≈: the same amount, converted by molar mass. Activity calls are given as the source filed them. No cut-off for these calls is given here.

As for `C[C@@H](c1cn(-c2ccc(Cl)cc2F)nn1)[C@](O)(Cn1cncn1)c1ccc(F)cc1F`, the MIC against Candida albicans [1] is 0.0625 µg/mL (≈ 0.139 µM); against Candida albicans [2] it was 16 µg/mL (≈ 35.6 µM); against Candida albicans [3] it was 8 µg/mL (≈ 17.8 µM); against Candida parapsilosis, 0.0625 µg/mL (≈ 0.139 µM); in the series with Pichia kudriavzevii [4] it was 0.25 µg/mL (≈ 0.557 µM); in the series with Pichia kudriavzevii [5], 0.125 µg/mL (≈ 0.278 µM). For the same molecule, the minimal inhibitory concentration (MIC) against Nakaseomyces glabratus was found to be 0.125 µg/mL (≈ 0.278 µM); in series [Candida] auris it was 1 µg/mL (≈ 2.23 µM); in series [7], 0.313 µg/mL. In the series on Candida albicans [6], this molecule yielded an inhibition at 0.0625 µg/mL of 75%. In [8], this molecule registered a Cmax of 837 ng/mL. Also, in series [9], the clearance came to 1.99 mL/min/kg. The outcome in the series with Candida albicans [10], in the series with Cryptococcus neoformans and in the series with Aspergillus fumigatus [11] was Active. The Activity with Aspergillus fumigatus [12] is recorded as 30%.
